The text below walks through data of patent US4048325A, “Low toxicity method of inhibiting sickling of sickle erythrocytes” (The United States of America as represented by the United …, priority 1976, dated 1977).

Series [1] relates to sickle erythrocytes. The settings on record: Lubin et al 1975; cited from earlier work.
For another series, the system named is NADH oxidase. Nature of the series: electron transport: NADH oxidase of mitochondrial inner membranes. It counts as biochemical. The conditions noted are these: for effect of treatment on NADH oxidase, in words: at comparable levels of amidination. The text has this: (§1) When compared to bifunctional imidates, monoimidates have major advantages as therapeutic agents for the treatment of sickle cell disease. One important difference between the two classes of reagents is their relative effect on enzyme activity. […] The results as shown, respectively in Table II and FIG. 2. To facilitate a comparison of imidate action, effects were related to extent of amidination as measured by percent amino group decrease rather than the absolute reagent concentration.

The test system of a further series is succinate oxidase. The series is described as follows: electron transport: succinate oxidase of mitochondrial inner membranes. The settings on record: for effect of treatment on succinate oxidase, in words: at comparable levels of amidination. It counts as biochemical.
Excerpt: as §1

For another series, the system named is ascorbate-TMPD oxidase. Nature of the series: electron transport: ascorbate-TMPD oxidase of mitochondrial inner membranes. The class given is biochemical. The settings on record: for effect of treatment on ascorbate-TMPD oxidase, in words: at comparable levels of amidination.
Excerpt: as §1

The subject of series [2] is inner membrane ATPase (adenosine triphosphatase). Nature of the series: inner membrane ATPase activity. It counts as biochemical. The settings on record: at comparable levels of amidination (FIG. 2).
Excerpt: FIG. 2 is a graph illustating the effect of dimethylsuberimidate (DMS) and ethylacetimidate (EA) on inner membrane ATPase (adenosine triphosphatase) activity. Open symbols represent DMS-treated membranes, and closed symbols represent EA-treated membranes.
as §1
In the experiment designated by the closed circles in FIG. 2, membranes were treated with high concentrations of EA to determine the extent of amidination required for complete inhibition of activity. The concentrations of EA required for complete inhibition of activity are considerably in excess of the amount required to inhibit sickling.

The test system of series [3] is sickle erythrocytes. Nature of the series: in vitro sickling of sickle erythrocytes after amidination. The class given is cell-based, human. The procedure:
(§2) Cells were washed with Krebs-Henseleit Buffer (pH 7.4) to remove non-erythrocyte blood elements and resuspended in the same medium to a final hematocrit of 20-40%. Erythrocyte suspensions (4% hematocrit) were incubated in KHB (pH 8.5) containing freshly dissolved EA (1-10 mM). After incubation at room temperature (20°-22°) for 30 min, the cells were washed twice with KH buffer (pH 7.4) and resuspended either in the original plasma (40% hematocrit) for analysis of sickling or in other solutions as described below. To amidinate under anoxia the cells were equilibrated with nitrogen in a tonometer until no oxygen could be detected polarographically. Imidates were added in the dry state to anaerobic cell suspensions. Following treatment, the suspensions were diluted 1:1 with 0.1M Tris-acetate--0.15M NaCl buffer (pH 6.0) to quench amidination, and the cells washed as described above.
The cells were deoxygenated with freshly prepared sodium metabisulfite, fixed with 10% formaldehyde, and examined microscopically. Hypoxic conditions: Cell suspensions were deoxygenated by equilibration with 3% oxygen. Five hundred cells were conted to ascertain the extent of sickling.

The test system of another series is erythrocytes. The series is described as follows: hemolysis following incubation under the conditions of amidination. It counts as cell-based, human. The settings on record: after incubation under the conditions of amidination. How it is done: as §2
The target of series [4] is T1, hemoglobin of normal cells (Homo sapiens, UniProt P68871+P69905).
T1 construct: endogenous in cells; host or cells: normal erythrocytes from healthy volunteers
Nature of the series: hemoglobin-oxygen affinity (P50), normal cells. The settings on record: 1 mM. The class given is cell-based. The procedure:
as §2
(§3) The oxygen affinity of whole blood (P50) was determined in a tonometer as in B. H. Lubin et al, cited above.
(§4) Since oxyhemoglobin and deoxyhemoglobin differ in quaternary structure and since the structural differences may affect the manner in which imidates react with hemoglobin, amidination was carried out in the presence and absence of oxygen and the effect on oxygen affinity was then examined.

Series [5] deals with T2, hemoglobin of sickle cells (Homo sapiens, UniProt P68871+P69905, E7V).
T2 construct: endogenous in cells; host or cells: sickle erythrocytes (Children's Hospital, Oakland, CA)
Nature of the series: hemoglobin-oxygen affinity (P50), sickle cells. The settings on record: 1 mM. The class given is cell-based. How it is done: as §2, §3, §4

The subject of the next series is rats. Nature of the series: animal survival after exchange of treated blood. It counts as in vivo, rat. The settings on record: 30mM in whole blood. How it is done:
In experiments conducted to determine the effect of monoimidates on animal survival, rats were treated with ethylacetimidate at levels of 30mM in whole blood under conditions similar to the in vitro studies described above. This level fo treatment is at least 30 times higher than required for prevention of sickling in vitro. At least three-fourths of the blood was treated and exchanged.

The nature of another series: in vivo. The conditions noted are these: ip, intraperitoneal. The text has this:
Each compound was made up in KH buffer (280 Mosm) buffered to pH 7.4 with 5N NaOH. The final volume for each injection was 1 cc in rats in 0.5 cc in mice.

Series [6] deals with sickle erythrocytes. The series is described as follows: net potassium leak which accompanies sickling. It counts as cell-based, human.

One may read the LD50 as the dose at which mortality reaches 50%.

Read-outs that look alike come from different tables or passages of the source.

For the compound `COC(=N)CCCCC(=N)OC` [DMA, dimethyl adipimidate], the “inhibition of sickling in vitro (literature report)” value in the series with sickle erythrocytes [1] is recorded as “inhibit sickling in vitro”.

Turning to `COC(=N)CCCCCCC(=N)OC` [DMS, dimethylsuberimidate, reference compound], the “NADH oxidase activity (% control)” value with NADH oxidase (2 mM) was 58 % control; in the series on NADH oxidase (10 mM), 10 % control. Also, the “effect of treatment on NADH oxidase, in words” value in the series with NADH oxidase is “markedly inhibited”. Further, the “Succinate oxidase activity (% control)” value was determined as 62 % control with succinate oxidase (2 mM) and 22 % control in the series on succinate oxidase (10 mM). Also, in the series on succinate oxidase, the “effect of treatment on succinate oxidase, in words” value was “markedly inhibited”. The entries for the “Ascorbate-TMPD oxidase activity (% control)” value in the series with ascorbate-TMPD oxidase (2 mM) and in the series on ascorbate-TMPD oxidase (10 mM) were 61 % control and 28 % control, respectively. For the same compound, the “effect of treatment on ascorbate-TMPD oxidase, in words” value in the series with ascorbate-TMPD oxidase is given as “markedly inhibited”. Further, the “effect of treatment on ATPase activity, in words” value in series [2] is recorded as “markedly inhibited”.

Regarding `CCOC(C)=N` [EA, ethyl acetimidate], the inhibition of sickling result was “nearly complete inhibition” in the series on sickle erythrocytes [3] (2-5 mM imidate, in vitro) and “approximately 80%” in the series with sickle erythrocytes [3] (low imidate concentrations (1-2mM)). In the series on sickle erythrocytes [3] (Homo sapiens, Erythrocyte, 1 mM imidate, in vitro, read-out: prevention of sickling), the inhibition at 1000 µM lay in the range of 70 to 80%. Also, the “prevention of sickling on renewed deoxygenation of cells amidinated under anoxia” value in the series on sickle erythrocytes [3] (compared with amidination in the presence of oxygen) is given as “sickling was prevented to the same degree”. Also, the “effectiveness under hypoxic and anoxic conditions” value in the series on sickle erythrocytes [3] (deoxygenation with 3% oxygen or sodium metabisulfite) was “effective under both hypoxic and anoxic conditions”. The hemolysis entry with erythrocytes was “Negligible hemolysis”. Further, the P50 came to 28.0 mm Hg in series [4] (amidinated deoxygenated), 25.0 mm Hg in series [4] (amidinated oxygenated), 35.0 mm Hg in series [5] (amidinated deoxygenated) and 27.0 mm Hg in [5] (amidinated oxygenated). For the same compound, the “NADH oxidase activity (% control)” value with NADH oxidase (4 mM) stood at 78 % control; in the series with NADH oxidase (20 mM) it was 56 % control. For the same compound, the “effect of treatment on NADH oxidase, in words” value in the series on NADH oxidase is recorded as “significantly less sensitive to EA than DMS”. The “Succinate oxidase activity (% control)” value is recorded as 61 % control with succinate oxidase (4 mM) and 45 % control in the series with succinate oxidase (20 mM). Also, in the series on succinate oxidase, the “effect of treatment on succinate oxidase, in words” value was “significantly less sensitive to EA than DMS”. In addition, the results for the “Ascorbate-TMPD oxidase activity (% control)” value with ascorbate-TMPD oxidase (4 mM) and with ascorbate-TMPD oxidase (20 mM) were 73 % control and 64 % control, respectively. The “effect of treatment on ascorbate-TMPD oxidase, in words” value in the series with ascorbate-TMPD oxidase is “significantly less sensitive to EA than DMS”. Further, the “effect of treatment on ATPase activity, in words” value in [2] is recorded as “significantly less inhibitory”. Further, in the series with rats (at least three-fourths of the blood treated and exchanged, three experiments), the “deleterious effects after exchange of treated blood” value is “no deleterious effects”. In addition, in the series on rats (due to the loss of blood during the transfusion), the hematocrits after treatment result was “slightly reduced”. Also, the LD50 was found to be 950 mg/kg in the series “in vivo” (mouse, mice, read-out: LD50 (Lethal dose for 50% of the animals)) and 900 mg/kg in the series “in vivo” (rat, rats).

As for `COC(C)=N` [methylacetimidate, methyl acetimidate], the “prevention of in vitro sickling compared with EA” value in the series with sickle erythrocytes [3] was “as effective as EA”. Further, the “net potassium leak which accompanies sickling” value in the series with sickle erythrocytes [6] was “elimination of the net potassium leak”.

With `CCCC(=N)OC` [methylbutyrimidate, methyl butyrimidate], the “prevention of in vitro sickling compared with EA” value with sickle erythrocytes [3] is “as effective as EA”.
